Assay results taken from patent US10525103B2, “Combined use of a vector encoding a modified receptor and its exogenous agonist in the treatment of seizures” (UCL BUSINESS LTD, priority 2014, dated 2020).
Where two headings read alike, the source gives them in different places.

Columns and labels:
[1] = target: T1, hM4Di (Homo sapiens, UniProt P08173, A203G/Y113C); format: in vivo; design: host or cells: rat (Sprague-Dawley) primary motor cortex neurons transduced in vivo with AAV5, Camk2a promoter; conditions: tetanus toxin model; CNO 1 mg/kg i.p. twice at 2-hour interval, 3.5 hour window, vs vehicle; P=0.028 Wilcoxon
T1 sequence (P08173 1-479 Y113C/A203G): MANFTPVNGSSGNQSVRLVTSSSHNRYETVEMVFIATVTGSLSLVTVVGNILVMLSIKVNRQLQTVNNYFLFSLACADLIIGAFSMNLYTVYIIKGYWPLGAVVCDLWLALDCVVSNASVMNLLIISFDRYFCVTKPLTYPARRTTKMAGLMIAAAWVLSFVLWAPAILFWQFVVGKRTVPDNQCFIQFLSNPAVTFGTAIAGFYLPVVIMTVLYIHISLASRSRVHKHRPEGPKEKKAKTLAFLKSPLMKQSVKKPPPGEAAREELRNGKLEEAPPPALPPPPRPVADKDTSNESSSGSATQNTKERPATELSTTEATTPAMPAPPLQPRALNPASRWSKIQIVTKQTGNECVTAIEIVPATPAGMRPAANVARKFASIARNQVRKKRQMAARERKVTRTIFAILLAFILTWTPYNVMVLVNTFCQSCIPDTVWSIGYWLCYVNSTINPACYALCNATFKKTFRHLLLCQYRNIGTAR

[2] = target: T1, hM4Di; format: in vivo; design: host or cells: rat (Sprague-Dawley) primary motor cortex neurons transduced in vivo with AAV5, Camk2a promoter
[3] = cited from earlier work
[4] = human, in vivo; cited from earlier work
[5] = test system: human muscarinic acetylcholine receptors mutated to DREADDs; conditions: cited from earlier work
[6] = target: T1, hM4Di; assay: Overview of hM4Di/CNO treatment in in vivo models of focal epilepsy
[7] = target: T1, hM4Di; design: host or cells: rat (Sprague-Dawley) primary motor cortex neurons transduced in vivo with AAV5, Camk2a promoter; conditions: in vivo
[8] = target: hM3Dq (Homo sapiens, UniProt P20309, A239G/Y149C); conditions: cited from earlier work
Sequence of hM3Dq (P20309 whole entry Y149C/A239G): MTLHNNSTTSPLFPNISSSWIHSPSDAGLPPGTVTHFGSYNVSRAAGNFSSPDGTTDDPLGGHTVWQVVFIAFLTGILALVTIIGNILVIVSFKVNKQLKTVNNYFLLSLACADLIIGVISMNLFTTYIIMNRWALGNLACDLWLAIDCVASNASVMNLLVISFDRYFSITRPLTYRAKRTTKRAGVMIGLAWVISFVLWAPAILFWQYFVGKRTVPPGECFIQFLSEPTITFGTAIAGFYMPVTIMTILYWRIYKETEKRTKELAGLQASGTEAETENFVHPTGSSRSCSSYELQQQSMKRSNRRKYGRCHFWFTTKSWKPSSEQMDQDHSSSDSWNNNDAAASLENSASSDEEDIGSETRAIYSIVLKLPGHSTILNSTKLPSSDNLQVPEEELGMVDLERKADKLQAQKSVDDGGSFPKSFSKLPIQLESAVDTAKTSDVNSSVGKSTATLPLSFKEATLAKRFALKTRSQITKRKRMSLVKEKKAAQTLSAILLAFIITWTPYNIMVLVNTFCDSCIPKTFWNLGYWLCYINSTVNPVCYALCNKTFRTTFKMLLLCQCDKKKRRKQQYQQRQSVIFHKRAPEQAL

| Structure (SMILES) | coastline [1] | frequency of epileptiform bursts [1] | high-frequency power [1] | time to significant reduction in seizure severity after CNO administration ([2]; picrotoxin (FIG. 2e)) [min] | attenuation of IF activity ([2]; picrotoxin, IF activity correlated with more severe motor seizures) | electrographic discharges ([2]; rats with hM4Di AAV in M1, CNO i.p. immediately after focal picrotoxin, vs vehicle) | duration of effect on neurons transduced with hM4Di or its excitatory analog [3] | time to full clearance ([3]; rat, in vivo) [h] | half-life [4] [h] | activation of DREADD receptors [5] | duration of seizure suppression / CNO present in the brain ([6]; following a single intraperitoneal injection) [min] | tolerability of the treatment ([6]; hM4Di expression plus systemic CNO) | electrographic and motor convulsions [7] | mean 4-14 Hz power [7] | mean frequency of negative deflections in the EEG [7] | number of IF runs that correlate with severe motor seizures [7] | pilocarpine-triggered seizures [7] | time to significant reduction in seizure severity after CNO administration [7] [min] | binding to hM3Dq [8] |
| --- | --- | --- | --- | --- | --- | --- | --- | --- | --- | --- | --- | --- | --- | --- | --- | --- | --- | --- | --- |
| C[N+]1([O-])CCN(C2=Nc3cc(Cl)ccc3Nc3ccccc32)CC1 [CNO, clozapine-N-oxide] | significantly attenuated | significantly attenuated | significantly attenuated | ≤ 10 | especially marked | attenuated | at least 90 minutes | ≤ 12 | 7 to 8 | readily activated | 45 to 60 | well tolerated | substantially reduced | significant decrease | significant decrease | significant decrease | profoundly suppressed | ≤ 10 |  |
| CN1CCN(C2=Nc3ccccc3Cc3ccccc32)CC1 [perlapine] |  |  |  |  |  |  |  |  |  |  |  |  |  |  |  |  |  |  | binds |
